For one compound, Appearance of solution results are on record in patent US20130310355A1, “LOW TOXICITY TOPICAL ACTIVE AGENT DELIVERY SYSTEM” (YOUNG PHARMACEUTICALS, INC., priority 2009, published 2013).

A short description of the data set: Solubilization of retinol in cyclomethicone alone. Format: physicochemical. The following applies: retinol 0.1-0.2% w/v in cyclomethicone alone. The text has this: Volatile organosiloxanes optionally are lightweight carriers that evaporate on application and thus have an elegant, light-weight “feel” on the skin. Volatile organosiloxanes, however, are typically limited in their ability to dissolve low polarity (i.e. usually greater than C7-C8)) organic compounds like retinoids. […] To address this issue vehicles were sought that would be both capable of creating clear solutions of active agent in a volatile organosiloxane carrier, but also have an appropriate evaporation rate in combination with the volatile organosiloxane when placed on the skin so as maintain the light-weight feel on the skin experienced by a user. A vehicle must also not promote unacceptable skin irritation when used at the concentration necessary in the composition.

Molecules are shown by their SMILES.

For the compound `CC1=C(/C=C/C(C)=C/C=C/C(C)=C/CO)C(C)(C)CCC1` [retinol], the Appearance of solution result is “hazy solutions”.
